The record followed here is patent US10167322B2, “Engineered albumin binding polypeptide” (AFFIBODY AB, priority 2013, dated 2019).

Several values for one entry are separate records, joined by “and”; a condition that tells them apart may be missing. Equal entries are not always repeated. Where two headings read alike, the source gives them in different places. Starred links: 1 amine or outer side, 2 acyl side, 3 side chain; linkers in the order of their positions; H or OH if unused. Positions of bridges follow the written chain, without caps; N, C: chain ends. No end group written: not given here. Pyridine(2,6-diCH2) = c1cc(C[*:1])nc(C[*:2])c1; mXylylene = c1cc(C[*:1])cc(C[*:2])c1; oXylylene = c1ccc(C[*:2])c(C[*:1])c1; X1 = O=C(C[*:1])[*:2]

The target in data set [1] is T1, human serum albumin (HSA) (Homo sapiens, UniProt P02768). Kind of data set: SPR biosensor (ProteOn XPR36) screening of binding to immobilized HSA. Particulars: 50 nM polypeptide, 2500 RU immobilized HSA, 25 °C. The method, then:
Biosensor binding analyses were performed on a ProteOn XPR36 instrument (Bio-Rad) at 25° C. using PBST (150 mM NaCl, 8 mM Na2HPO4, 2 mM NaH2PO4, 0.005% Tween20, pH 7.4) as running buffer at a flow rate of 50 μl min^−1. An injection of 30 μl of 20 mM HCl at a flow rate of 100 μl min^−1 was used for chip regeneration. In a screening experiment, the binding of all polypeptide variants to human serum albumin (HSA) was investigated. The proteins were diluted to 50 nM in running buffer and injected over a chip surface with 2500 RU of immobilized HSA. The association was studied for 300 s and the dissociation was followed for 7200 s (2 h). For data analysis, all samples were double referenced; the signal from a blank surface was first subtracted from the signal from the respective protein, and secondly the signal from an injection of PBST (running buffer) over the HSA surface was subtracted.
For orientation: In SPR one partner is held on a chip, and binding of the other changes the refractive index at the surface.

Data set [2] relates to trypsin and chymotrypsin. Nature of the data set: Protease degradation analysis with trypsin and chymotrypsin (RP-HPLC of intact polypeptide). Particulars: for Resistance towards degradation by trypsin and chymotrypsin, screening / AUC increase / resistance towards degradation by trypsin together with chymotrypsin compared to PEP07830: 2.7 μg ml^−1 trypsin, 1.2 μg ml^−1 chymotrypsin, 37 °C; for Resistance towards degradation by trypsin and chymotrypsin, screening: PBS pH 7.4, 10 min; for AUC increase / resistance towards degradation by trypsin together with chymotrypsin compared to PEP07830: 0-60 min. It is filed as in vitro ADME, bovine. The method, then:
(§1) Proteolytic degradation was studied using pepsin (obtained from porcine gastric mucosa, 3200-4500 U mg^−1, Sigma) and a mixture of trypsin (obtained from bovine pancreas, ≈37 U mg^−1, Sigma) and chymotrypsin (obtained from bovine pancreas, ≥40 U mg^−1, Sigma). In all degradation experiments, 5 μg protein in PBS (pH 7.4) at a concentration of 0.25 mg ml^−1 (50 μM) was used.
5 μg of each variant was transferred to a microcentrifuge tube. 32 μl PBS (pH 7.4) with trypsin at a concentration of 4.39 μg ml^−1 and chymotrypsin at a concentration of 1.95 μg ml^−1 was added to yield a final concentration of 2.7 μg ml^−1 of trypsin and 1.2 μg ml^−1 of chymotrypsin. In the screening experiment, the samples were incubated for 10 min at 37° C. before the enzyme was inactivated by addition of 3 μl 10% TFA and then the sample was put on ice. A reference sample of each protein was inactivated with TFA before the trypsin and chymotrypsin were added to the tube.
The degradation over time was monitored for PEP18049_CL, PEP14788_CL_A and the reference polypeptide PEP07830 by incubation for 3, 6, 12, 30, or 60 min at 37° C. before inactivation with TFA. As above, reference samples, inactivated with TFA before trypsin and chymotrypsin were added to the tube, were incubated likewise.
(§2) All samples were analyzed by RP-HPLC using an analytical column (Zorbax 300SB-C18, 4.6×150 mm, 3.5 μm particle size, Agilent Technologies) and a gradient of 15-45% solvent B (solvent A: 0.1% TFA-H2O; solvent B: 0.1% TFA-CH3CN) over 25 min at a flow rate of 1.2 ml min^−1 and LC-ESI-MS on a 6520 Accurate Mass Q-TOF LC/MS.
(§3) The elution peaks containing the intact polypeptides were integrated and the area under curve was calculated. The degradation experiments over time were performed in triplicates. The integrated area of each sample was normalized to the mean area of the t=0 samples of that variant, the mean and standard error of the mean were calculated for each time point.
(§4) To quantify the stability improvement of the crosslinked variants, the AUC (area under curve) from the normalized charts was calculated for the three investigated variants. The AUC of the crosslinked variants was then compared to the AUC of the reference polypeptide.

The target of data set [3] is T2, pepsin (Sus scrofa, UniProt P00791).
T2 construct: purchased Sigma; host or cells: porcine gastric mucosa
T2 sequence (P00791 60-385): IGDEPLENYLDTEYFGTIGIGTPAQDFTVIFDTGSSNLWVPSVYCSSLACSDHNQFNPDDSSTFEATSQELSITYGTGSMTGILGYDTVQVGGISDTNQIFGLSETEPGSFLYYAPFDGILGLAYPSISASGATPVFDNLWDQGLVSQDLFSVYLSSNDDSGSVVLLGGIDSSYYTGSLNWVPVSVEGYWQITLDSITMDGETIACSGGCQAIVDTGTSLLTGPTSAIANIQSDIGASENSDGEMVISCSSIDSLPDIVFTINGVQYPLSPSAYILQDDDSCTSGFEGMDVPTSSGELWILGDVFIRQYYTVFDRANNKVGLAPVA
Nature of the data set: Protease degradation analysis with pepsin (RP-HPLC of intact polypeptide). Format: in vitro ADME, porcine. Particulars: for Resistance towards degradation by pepsin, screening: 2 μg ml^−1 pepsin, pH around 2.6, 10 min; for Resistance towards degradation by pepsin, screening / AUC increase / resistance towards degradation by pepsin compared to PEP07830: 37 °C; for AUC increase / resistance towards degradation by pepsin compared to PEP07830: 0.5 μg ml^−1 pepsin, 0-60 min. The method, then: as §1
5 μg of each variant was transferred to a microcentrifuge tube. 32 μl 10 mM HCl with pepsin at a concentration of 3.25 μg ml^−1 or 0.81 μg ml^−1, resulting in a pH around 2.6 and a final pepsin concentration of 2 μg ml^−1 to be used for screening experiment and 0.5 μg ml^−1 for studying the degradation over time. In the screening experiment, the samples were incubated for 10 min at 37° C. before the enzyme was inactivated by addition of 5 μl 0.1 M NaOH, which raised the pH to above 9, and then the sample was put on ice. A reference sample of each protein was inactivated with NaOH before pepsin was added to the tube.
The degradation over time was monitored for PEP18049_CL, PEP14788_CL_A and the reference polypeptide PEP07830 by incubation for 3, 6, 12, 30 or 60 min at 37° C. before inactivation with NaOH. Reference samples, inactivated with NaOH before the pepsin was added to the tube, were incubated likewise.
as §2, §3, §4

Data set [4] deals with T1, human serum albumin (HSA). Kind of data set: SPR biosensor (ProteOn XPR36) HSA binding kinetics, 1:1 Langmuir fit. Particulars: for comparison only; for kon / koff: triplicate, mean (±SD), relative values; for kon: read-out: ka (association rate constant); for koff: read-out: kd (dissociation rate constant). The method, then:
The HSA binding kinetics of PEP18049_CL and the reference protein PEP07830 were further studied using a sensor chip with HSA immobilized on three different surfaces to between 1100 RU and 1600 RU. The proteins were diluted in running buffer (0.8, 1.6, 3.3, and 6.6 nM for PEP18049_CL and 1.0, 2.0, 4.0 and 8.0 nM for PEP07830) and injected over the three HSA surfaces and thus giving binding curves in triplicate. The association time was 300 s and the dissociation was followed for 36 000 s (10 h).
The kinetic parameters of the binding of PEP18049_CL and the reference protein PEP07830 to HSA were obtained from fitting the obtained sensorgrams to a 1:1 Langmuir binding model using the ProteOn Manager software version 3.1.0.6 (Bio-Rad). The average association rate constant (ka (M^−1 s^−1) and dissociation rate constant (kd (s^−1)) with standard deviation were calculated. From the average ka and the kd the dissociation equilibrium constant (KD (M)) was calculated (KD=kd/ka).

Data set [5] can be described thus: Circular dichroism variable temperature measurement (melting temperature). Particulars: CD at 221 nm, 20-90 °C, 50 μM in PBS pH 7.4. Format: physicochemical. The method, then: Polypeptides were dissolved in PBS (pH 7.4) to a concentration of 50 μM (approximately 0.25 mg ml^−1) and CD spectra and melting curves were collected on a Jasco J-810 spectropolarimeter (Jasco) using a cell with an optical path-length of 1 mm. Variable temperature measurements, VTM, were used to determine Tm. In these measurements, the […] was measured at 221 nm from 20° C. to 90° C., with a temperature slope of 5° C. min^−1. The secondary structure of each variant was analyzed by recording a spectrum ranging from 250 to 195 nm at 20° C., both before and after VTM.
On the technique in general: Circular dichroism is widely used to follow secondary structure.

Setting [6] is: human, HSA immobilized on SPR sensor chip (ProteOn XPR36).
[7] abbreviates: LC-ESI-MS of degradation products.

Take “PEP18050_CL: SEQ ID NO:1769 (PEP18050), control polypeptide, crosslinked Lys5-Cys28 (LAEAKEAANAELDSYGVSDFYKRLIDKCKTVEGVEALKDAILAALP; Lys5-Cys28 crosslink; Engineered albumin binding polypeptide)”: the “HSA binding in screening experiment” value in data set [1] was “completely lost their affinity for HSA”.
On the same count and under the same terms, the result for “PEP18053_CL: SEQ ID NO:1772 (PEP18053), control polypeptide, double crosslinked (CAEAKEAANAELDSYGCSDFYKRLIDKAKTVEGVEALKDAILAAKP; double crosslinked; Engineered albumin binding polypeptide)” reads “weak binding”.
Take “LAEAKEAANAELDSYGCSDFYKRLIDKAKTVEGVEALKDAILAACP-NH2 (linker 17-45 via Pyridine(2,6-diCH2)) [PEP14788_CL_E]”: the “Resistance towards degradation by trypsin and chymotrypsin, screening” value in data set [2] was “no significant difference between these variants”. For the same substance, the “Resistance towards degradation by pepsin, screening” value in data set [3] is “no significant difference between these variants”.
“PEP18051_CL: SEQ ID NO:1770 (PEP18051), control polypeptide, crosslinked Cys1-Lys29 (CAEAKEAANAELDSYGVSDFYKRLIDKAKTVEGVEALKDAILAALP; Cys1-Lys29 crosslink; Engineered albumin binding polypeptide)”: in data set [1], the “HSA binding in screening experiment” value is reported as “slower on-rate, but also seemed to have a very slow off-rate indicating a high affinity for HSA”.
Turning to “Ac-LAEAKEAANAELDSYGCSDFYKRLIDKAKTVEGVEALKDAILAAKP-NH2 (linker 17-45 via X1) [PEP18049_CL]”, in data set [2], the “AUC increase / resistance towards degradation by trypsin together with chymotrypsin compared to PEP07830” value came to 5 fold; the “Resistance towards degradation by trypsin and chymotrypsin, screening” value was “increased resistance towards degradation”. Besides, the “HSA binding in screening experiment” value in data set [1] is “fast on-rate and a two phase-like dissociation”. Besides, in data set [4] (setting [6]), the kon came to 620000 M⁻¹ s⁻¹ and the koff was found to be 1.5e-05 s⁻¹. Also, in data set [4] (triplicates), the Kd (commonly the concentration at which binding is half-saturated) is ~0.024 nM and 0.024 nM. In addition, in data set [3], the “AUC increase / resistance towards degradation by pepsin compared to PEP07830” value is recorded as 17 fold and the “Resistance towards degradation by pepsin, screening” value was “increased resistance towards degradation”. Further, the “Tm (melting temperature)” value in data set [5] turned out to be 63 °C.
As to “PEP18052_CL: SEQ ID NO:1771 (PEP18052), control polypeptide, double crosslinked (LAEAKEAANAELDSYGCSDFYKRLIDKCKTVEGVEALKDAILAAKP; double crosslinked; Engineered albumin binding polypeptide)”, the “HSA binding in screening experiment” value in data set [1] is reported as “completely lost their affinity for HSA”.
As for “LAEAKEAANAELDSYGCSDFYKRLIDKAKTVEGVEALKDAILAACP-NH2 (linker 17-45 via oXylylene) [PEP14788_CL_A]”, in data set [2], the “AUC increase / resistance towards degradation by trypsin together with chymotrypsin compared to PEP07830” value came out at 1.4 fold; the “Resistance towards degradation by trypsin and chymotrypsin, screening” value is “no significant difference between these variants”. In data set [3], the “AUC increase / resistance towards degradation by pepsin compared to PEP07830” value was determined as 2.4 fold and the “Resistance towards degradation by pepsin, screening” value is listed as “no significant difference between these variants”.
In the case of “LAEAKEAANAELDSYGCSDFYKRLIDKAKTVEGVEALKDAILAACP-NH2 (linker 17-45 via mXylylene) [PEP14788_CL_B]”, the “Resistance towards degradation by trypsin and chymotrypsin, screening” value in data set [2] was “no significant difference between these variants”. Moreover, the “Resistance towards degradation by pepsin, screening” value in data set [3] is given as “no significant difference between these variants”.
Turning to “LAEAKEAANAELDSYGVSDFYKRLIDKAKTVEGVEALKDAILAALP-NH2 (C-terminus assumed) [PEP07830, reference compound]”, the “Peptide bond most susceptible for cleavage by trypsin and chymotrypsin” value in data set [2] (setting [7]) was “between Tyr21 and Lys22”. This substance returned a Kd in data set [4] (human, KD=kd/ka from average ka and kd) of 0.021 nM. In addition, in data set [4] (human), the kon came to 190000 M⁻¹ s⁻¹ and the koff stood at 4.1e-06 s⁻¹. Besides, in data set [4] (human, triplicates), the dissociation constant Kd is roughly 0.021 nM. The “Peptide bond rapidly cleaved by pepsin (major degradation products)” value in data set [3] (setting [7]) was “between Leu42 and Ala43”.
